The values that follow come from patent US20060074243A1, “Hydroxamic acid and amide compounds and their use as protease inhibitors” (Pharmacia Corporation, priority 2002, published 2006).

Molecules are shown by their SMILES. A value given as a limit tells only on which side of the number the result lay.

One test deals with T1, Human recombinant MMP-1 (Homo sapiens, UniProt P03956).
T1 construct: made in house; host or cells: MMP-1-transfected HT-1080 cells (spent media)
T1 sequence (P03956 100-469): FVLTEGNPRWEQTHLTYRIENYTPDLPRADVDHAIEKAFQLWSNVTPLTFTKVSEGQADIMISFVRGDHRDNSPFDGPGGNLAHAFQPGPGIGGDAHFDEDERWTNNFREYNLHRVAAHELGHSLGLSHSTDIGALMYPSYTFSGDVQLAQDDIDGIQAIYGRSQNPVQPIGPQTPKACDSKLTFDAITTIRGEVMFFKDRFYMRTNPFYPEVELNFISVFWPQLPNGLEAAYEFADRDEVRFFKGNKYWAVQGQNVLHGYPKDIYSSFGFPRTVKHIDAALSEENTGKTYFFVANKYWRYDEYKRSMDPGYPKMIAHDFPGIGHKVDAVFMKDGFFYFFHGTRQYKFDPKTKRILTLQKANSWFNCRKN
The test is described as follows: In vitro MMP inhibition analysis (fluorogenic peptide substrate cleavage), Ki. In kind it is biochemical. To be noted: Table 2. A digest of the protocol:
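APMA- or trypsin-activated recombinant human MMP-1 (purified from transfected HT-1080 medium) with 4 μM MCA/Dpa quenched fluorogenic peptide, 1 h at room temperature in Tris/NaCl/CaCl2 buffer pH 7.5; fluorescence ex 330/em 420 nm. Ki from Morrison-equation fit of rates, substrate at or below Km, uncorrected.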

A further test deals with T2, Human recombinant MMP-13 (Homo sapiens, UniProt P45452).
T2 construct: made in house; host or cells: baculovirus / insect cells
The description is as above. The format is biochemical. To be noted: Table 2. A digest of the protocol:
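Baculovirus-expressed full-length MMP-13 proenzyme was purified on heparin-agarose and zinc-chelate columns, then APMA-activated. It cleaved 4 μM MCA/Dpa fluorogenic peptide in 100 mM Tris-HCl, 100 mM NaCl, 10 mM CaCl2, 0.05% Brij-23, pH 7.5, for 1 h at room temperature (ex 330/em 420 nm). Ki came from Morrison-equation fits with substrate ≤Km, uncorrected.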

`O=C(NCC(F)(F)C(F)(F)F)c1cnc(-c2ccc(S(=O)(=O)C3(C(=O)NO)CCOCC3)cc2)cn1` [Example 192]: the Ki on Human recombinant MMP-1 turned out to be 1540 nM; on Human recombinant MMP-13 it was 0.22 nM.

Turning to `O=C(NO)C1(S(=O)(=O)c2ccc(-c3nc4ccccc4o3)cc2)CCOCC1` [Example 193], the Ki at Human recombinant MMP-1 amounted to 1490 nM; on Human recombinant MMP-13 it was 1.69 nM.

Turning to `O=C(NO)C1(S(=O)(=O)c2ccc(-c3cnc4ccccc4n3)cc2)CCOCC1` [Example 194], the inhibition constant Ki was greater than 10000 nM on Human recombinant MMP-1 and 319 nM at Human recombinant MMP-13.

Turning to `O=C(NO)C1(S(=O)(=O)c2ccc(-c3nc4ccccc4s3)cc2)CCOCC1` [Example 195], the inhibition constant (Ki) is greater than 10000 nM on Human recombinant MMP-1 and 7.2 nM at Human recombinant MMP-13.

In the case of `O=C1c2ccccc2C(=O)N1CCCOc1cccc(-c2ccc(S(=O)(=O)C3(C(=O)NO)CCOCC3)cc2)c1` [Example 196], the Ki was greater than 10000 nM on Human recombinant MMP-1 and 13.5 nM on Human recombinant MMP-13.

Take `O=C(NO)C1(S(=O)(=O)c2ccc(-c3ccccc3CO)cc2)CCOCC1` [Example 197]: the inhibition constant Ki at Human recombinant MMP-1 was greater than 10000 nM; at Human recombinant MMP-13 it was 1080 nM.

Regarding `O=C(NC1CCCC1)c1ccc(-c2ccc(S(=O)(=O)C3(C(=O)NO)CCOCC3)cc2)nc1` [Example 198], the Ki on Human recombinant MMP-1 amounted to 552 nM; on Human recombinant MMP-13 it was 0.323 nM.

Turning to `C#CCN1CCC(C(=O)NO)(S(=O)(=O)c2ccc(-c3ccc(CCC(F)(F)C(F)(F)F)cn3)cc2)CC1` [Example 199], the figures for the inhibitory constant (Ki) on Human recombinant MMP-1 and on Human recombinant MMP-13 were 4510 nM and 0.086 nM, respectively.

`COCCN1CCC(C(=O)NO)(S(=O)(=O)c2ccc(-c3cnc(OCCC4CCCC4)cn3)cc2)CC1` [Example 200]: the values for the inhibitory constant (Ki) on Human recombinant MMP-1 and on Human recombinant MMP-13 were greater than 10000 nM and 0.144 nM, respectively.

In the case of `O=C(NO)C1(S(=O)(=O)c2ccc(-c3ccc(CCC(F)(F)C(F)(F)F)cn3)cc2)CCOCC1` [Example 201], the inhibition constant (Ki) on Human recombinant MMP-1 was found to be 980 nM; at Human recombinant MMP-13, 0.02 nM.

On to `O=C(NO)C1(S(=O)(=O)c2ccc(-c3ccc(CCCC(F)(F)F)cn3)cc2)CC=CC1` [Example 202], for which the inhibition constant Ki turned out to be 4060 nM at Human recombinant MMP-1 and 0.076 nM on Human recombinant MMP-13.

As to `CCCCNC(=O)c1ccc(-c2ccc(S(=O)(=O)C3(C(=O)NO)CCOCC3)cc2)nc1` [Example 203], the Ki on Human recombinant MMP-1 stood at 1140 nM; at Human recombinant MMP-13 it was 0.375 nM.

For the compound `CC(C)NC(=O)c1ccc(-c2ccc(S(=O)(=O)C3(C(=O)NO)CCOCC3)cc2)nc1` [Example 204], the Ki at Human recombinant MMP-1 was 751 nM; at Human recombinant MMP-13 it was 0.751 nM.

For `CC(C)(C)NC(=O)c1ccc(-c2ccc(S(=O)(=O)C3(C(=O)NO)CCOCC3)cc2)nc1` [Example 205], the values for the inhibition constant Ki at Human recombinant MMP-1 and at Human recombinant MMP-13 were 1070 nM and 1.19 nM, respectively.

With `CCCCc1cnc(-c2ccc(S(=O)(=O)C3(C(=O)NO)CCN(CCOC)CC3)cc2)cn1` [Example 206], the values for the Ki at Human recombinant MMP-1 and on Human recombinant MMP-13 were greater than 10000 nM and 0.41 nM, respectively.

Regarding `CC[C@@H](C)NC(=O)c1ccc(-c2ccc(S(=O)(=O)C3(C(=O)NO)CCOCC3)cc2)nc1` [Example 207], the inhibitory constant (Ki) on Human recombinant MMP-1 amounted to 1380 nM; on Human recombinant MMP-13, 0.729 nM.

In the case of `CC[C@H](C)NC(=O)c1ccc(-c2ccc(S(=O)(=O)C3(C(=O)NO)CCOCC3)cc2)nc1` [Example 208], the inhibition constant (Ki) on Human recombinant MMP-1 came out at 1260 nM; at Human recombinant MMP-13, 0.715 nM.

For `COCCOC1CCC(C(=O)NO)(S(=O)(=O)c2ccc(-c3ccc(CCCC(F)(F)F)cn3)cc2)CC1` (stereo not shown) [Example 209], the figures for the Ki at Human recombinant MMP-1 and on Human recombinant MMP-13 were 1280 nM and 0.029 nM, respectively.

As to `COCCOC1CCC(C(=O)NO)(S(=O)(=O)c2ccc(-c3cnc(CCCC(F)(F)F)cn3)cc2)CC1` (stereo not shown) [Example 210], the inhibitory constant (Ki) was greater than 10000 nM on Human recombinant MMP-1 and 0.151 nM on Human recombinant MMP-13.

For the compound `O=C(CCc1nccs1)c1ccc(-c2ccc(S(=O)(=O)C3(C(=O)NO)CCOCC3)cc2)cc1` [Example 211], the inhibition constant (Ki) on Human recombinant MMP-1 came to 975 nM; at Human recombinant MMP-13, 0.056 nM.

On to `O=C(Cc1ccc(-c2ccc(S(=O)(=O)C3(C(=O)NO)CCOCC3)cc2)nc1)N1CCCCC1` [Example 212], for which the inhibition constant Ki at Human recombinant MMP-1 was greater than 10000 nM; on Human recombinant MMP-13 it was 0.679 nM.

Take `CCN1CCC(C(=O)NO)(S(=O)(=O)c2ccc(-c3cnc(CCC(F)(F)F)cn3)cc2)CC1` [Example 213]: the inhibitory constant (Ki) on Human recombinant MMP-1 is greater than 10000 nM; at Human recombinant MMP-13 it was 1.41 nM.

Turning to `COCCN1CCC(C(=O)NO)(S(=O)(=O)c2ccc(-c3cnc(CCC(F)(F)F)cn3)cc2)CC1` [Example 214], the inhibition constant (Ki) was greater than 10000 nM at Human recombinant MMP-1 and 0.661 nM on Human recombinant MMP-13.

With `O=C(NO)C1(S(=O)(=O)c2ccc(-c3cnc(CCC(F)(F)F)cn3)cc2)CCN(C2CC2)CC1` [Example 215], the Ki at Human recombinant MMP-1 was greater than 10000 nM; on Human recombinant MMP-13 it was 0.356 nM.

As for `C#CCN(C)C(=O)c1ccc2cc(-c3ccc(S(=O)(=O)C4(C(=O)NO)CCOCC4)cc3)ccc2c1` [Example 216], the Ki at Human recombinant MMP-1 came to 1860 nM; on Human recombinant MMP-13, 0.572 nM.

Turning to `CCN1CCC(C(=O)NO)(S(=O)(=O)c2ccc(-c3cnc(CCCC(F)(F)F)cn3)cc2)CC1` [Example 217], the Ki at Human recombinant MMP-1 is greater than 10000 nM; at Human recombinant MMP-13, 1.2 nM.

On to `O=C(NO)C1(S(=O)(=O)c2ccc(-c3cnc(CCCC(F)(F)F)cn3)cc2)CCN(C2CC2)CC1` [Example 218], for which the values for the inhibition constant (Ki) at Human recombinant MMP-1 and on Human recombinant MMP-13 were greater than 10000 nM and 0.267 nM, respectively.

As to `Cc1nc(CCc2ccc(-c3ccc(S(=O)(=O)C4(C(=O)NO)CCOCC4)cc3)cc2)no1` [Example 219], the Ki on Human recombinant MMP-1 was 1700 nM; at Human recombinant MMP-13, 0.111 nM.

In the case of `O=C(NCC1CC1)c1ccc2cc(-c3ccc(S(=O)(=O)C4(C(=O)NO)CCOCC4)cc3)ccc2c1` [Example 220], the results for the Ki at Human recombinant MMP-1 and on Human recombinant MMP-13 were 251 nM and 0.259 nM, respectively.

In the case of `CN(C)C(=O)c1ccc2cc(-c3ccc(S(=O)(=O)C4(C(=O)NO)CCOCC4)cc3)ccc2c1` [Example 221], the Ki amounted to 1860 nM at Human recombinant MMP-1 and 0.736 nM on Human recombinant MMP-13.

`O=C(c1ccc2cc(-c3ccc(S(=O)(=O)C4(C(=O)NO)CCOCC4)cc3)ccc2c1)N1CCOCC1` [Example 222]: the figures for the Ki at Human recombinant MMP-1 and at Human recombinant MMP-13 were 1440 nM and 0.612 nM, respectively.

Turning to `O=C(c1ccc2cc(-c3ccc(S(=O)(=O)C4(C(=O)NO)CCOCC4)cc3)ccc2c1)N1CCCCC1` [Example 223], the inhibition constant (Ki) worked out at 1500 nM at Human recombinant MMP-1 and 0.97 nM on Human recombinant MMP-13.
